The text below walks through data of patent publication US7973135B2, “Compositions and methods for targeting cancer-specific transcription complexes” (Oncotx, Inc., priority 2006, dated 2011).

Holding throughout (format): cell-based, human
Assay [1] relates to WM 266-4 cells. In words: Apoptosis (Annexin V-Cy3 kit) of melanoma cells treated with peptides. As to conditions: for Apoptosis, result in words (summary of Table 2): 10 μM; for Apoptosis 7 days/%: peptide 10 μM. The method, then:
(§1) Human melanoma cell lines SK-MEL-28 and WM-266-4 were obtained from the American Type Culture Collection (ATCC; Manassas, Va.; SK-MEL-28 deposited by T. Takehashi and subject to release terms set by The Memorial Sloan-Kettering Cancer Center; WM-266-4 deposited by M. Herlyn). Cells were cultured according to recommendations of ATCC (DMEM, 10% FCS, penicillin+streptomycin) and used in experiments after two passages in the laboratory. Cells were grown in 24 well plates, each treatment in triplicates. Cells were plated 16 hours prior treatments started. Peptides were added to the media, and media was changed every day during 7 day experiment. CPP concentration was 10 μM.
(§2) Apoptosis was analyzed using Biovision Annexin V-Cy3 Apoptosis Kit according to manufacturer's protocols.
(§3) Effects of peptide drug candidates BAF57 P12 and TRAP100 P05 on cell proliferation and apoptosis were analyzed using human melanoma cell lines SK-MEL-28 and WM 266-4. Therapeutic peptides were added at a concentration of 10 μM directly to culture media. Internalization and translocation of the therapeutic peptide(s) into the cell nucleus was studied using fluorescein labeled peptides. […] As controls we used scrambled peptides. […] Simultaneous incubation of melanoma cells with both peptides caused complete inhibition of proliferation and induction of apoptosis in almost all treated cells.

Assay [2] relates to SK-MEL-28 cells. The assay is described as above. As to conditions: for Apoptosis, result in words (summary of Table 2) / Apoptosis 7 days/%: SK-MEL-28; for Apoptosis, result in words (summary of Table 2): 10 μM; for Apoptosis 7 days/%: peptide 10 μM; for Apoptosis of melanoma cells in vitro, result in words (library screening): screening of peptide libraries using SK-MEL-28. The method, then: as §1, §2, §3

In assay [3] the test system is WM 266-4 cells. As to the kind of experiment: Cell proliferation (cell counting) of melanoma cells treated with peptides. The following applies: for Proliferation, result in words (summary of Table 2): 10 μM; for Cell Count 7 days: peptide 10 μM in media, start count 10, 7 days. The method, then: as §1
(§4) For cell counting, cells were trypsinized (0.25% Trypsin, 2 mM EDTA) in Ca+2, Mg+2 free PBS. Cells were precipitated and resuspended in 100 μl of PBS, and 5 μl were removed for counting
as §3

Assay [4] has as its system SK-MEL-28 cells. The assay is described as above. The following applies: for Proliferation, result in words (summary of Table 2) / Cell Count 7 days: SK-MEL-28; for Proliferation, result in words (summary of Table 2): 10 μM; for Cell Count 7 days: peptide 10 μM in media, start count 10; for Growth of melanoma cells in vitro, result in words (library screening): screening of peptide libraries using SK-MEL-28. The method, then:
as §1, §4, §3

“PKKRKVRRRRRRRNDRLSDGDSKYSQTSHKLVQLL (listed as Homo sapiens) [BAF57 P12, NLS-CPP-interfering peptide targeting chromatin modifying complex containing cancer specific isoform of BAF57]”: in the assay with WM 266-4 cells [1], the “Apoptosis, result in words (summary of Table 2)” value (from here on “Apoptosis, result in words”) is “induce apoptosis” and the “Apoptosis 7 days/%” value came to 59%. In the assay with SK-MEL-28 cells [2], the “Apoptosis, result in words” value was “induce apoptosis”; the “Apoptosis 7 days/%” value is 65%; the “Apoptosis of melanoma cells in vitro, result in words (library screening)” value is “stimulate apoptosis”. In addition, in the assay with WM 266-4 cells [3], the “Proliferation, result in words (summary of Table 2)” value (shortened to “Proliferation, result in words”) is “suppress significantly proliferation” and the “Cell Count 7 days” value worked out at 17. Moreover, in the assay with SK-MEL-28 cells [4], the “Proliferation, result in words” value was “suppress significantly proliferation”; the “Cell Count 7 days” value worked out at 16; the “Growth of melanoma cells in vitro, result in words (library screening)” value is given as “inhibit growth of melanoma cells”.

Take “PKKRKVRRRRRRRPQMQQNVFQYPGAGMVPQGEANF (listed as Homo sapiens) [TRAP100 P05, NLS-CPP-interfering peptide targeting mediator complex containing cancer specific isoform of MED24/TRAP100]”: in the assay on WM 266-4 cells [1], the “Apoptosis, result in words” value is reported as “induce apoptosis” and the “Apoptosis 7 days/%” value came out at 78%. Further, in the assay with SK-MEL-28 cells [2], the “Apoptosis, result in words” value is “induce apoptosis”; the “Apoptosis 7 days/%” value is 78%; the “Apoptosis of melanoma cells in vitro, result in words (library screening)” value is listed as “stimulate apoptosis”. In the assay with WM 266-4 cells [3], the “Proliferation, result in words” value was “suppress significantly proliferation” and the “Cell Count 7 days” value amounted to 15. Moreover, in the assay on SK-MEL-28 cells [4], the “Proliferation, result in words” value is “suppress significantly proliferation”; the “Cell Count 7 days” value was determined as 12; the “Growth of melanoma cells in vitro, result in words (library screening)” value is reported as “inhibit growth of melanoma cells”.
